Measured values taken from US5691361A, “1,4-dihydropyridine derivatives, a process for their preparation and their use for influencing the blood flow” (priority 1995, dated 1997).

Experiments:
[1] = test system: spontaneously hypertensive rats (SHR); assay: Antihypertensive activity in spontaneously hypertensive rats (systolic blood pressure, tail plethysmography); format: in vivo, spontaneously hypertensive rats (SHR) of Okamoto strain; details: Rattus norvegicus, single oral dose 20 mg/kg, 2 hours after treatment
Description: The antihypertensive activity of the compounds of the invention is tested in spontaneously hypertensive rats (SHR) of Okamoto strain. Systolic blood pressure is monitored by tail plethysmography. The animals are trained for two weeks for the monitoring process. On the day of the experiment the rats are placed in an oven for two hours at 31°±1° C. and blood pressure is recorded graphically. The measurement recorded is the average of five measurements taken in each case. Only animals with basic values of systolic blood pressure over 170 mm Hg are considered hypertensive. After 24 hours fasting the compound to be tested (20 mg/kg) and/or a carrier (20% PEG 400 in 0.5% aqueous methyl cellulose (10 ml/kg)) is orally administered to the selected hypertensive animals by means of a gastric cannula. The values are expressed in percentage variation 2 hours after treatment.

rabbit aorta = assay: Vasodilatory effect: inhibition of calcium-induced contraction of K+-depolarized isolated rabbit aorta strips; format: cell-based, white New Zealand rabbits; details: Oryctolagus cuniculus
Description: (§1) The vasodilatory effects are tested as follows: an isolated aorta of the thorax of white New Zealand rabbits is secured in an organ bath. The contractile activity of the helical throacic aorta strip is recorded after depolarization with Krebs solution without calcium (35 mM, potassium) and addition of external calcium pulses (1.5 mM). The compounds are added in increasing concentrations before calcium is reintroduced.

[2] = test system: left stimulated rabbit atrium / rabbit aorta; assay: Tissue selectivity: ratio of IC50 in left stimulated isolated rabbit atrium to IC50 in K+-depolarized rabbit aorta; format: cell-based; details: ratio of IC50 in left stimulated rabbit atrium and IC50 in rabbit aorta
Description: as §1
The electrical stimulation is fixed at 1 Hz. After one hour equilibration the percentage contraction is set at 100%, increased concentrations of the compounds are added to the bath every 15 minutes and the changes in the contractile force are recorded. The IC50 values are calculated by interpolation from the concentration-effect relationship determined in each of the experiments.

rabbit aorta strips = assay: Vasoconstrictory effect in rabbit aorta strips at low depolarizing conditions (10 mM K+); format: cell-based
Description: The vasoconstrictory effects are measured at low depolarizing conditions in rabbit aorta strips. 10 mM K^+ is used to obtain a low starting concentration. Subsequently, increasing concentrations of the test compound are added in order to achieve an increase in contraction.
The EC50 (negative logarithm of the molar concentration required to increase the calcium induced contraction of low K^+ depolarized rabbit aorta by 50%) is analysed by interpolation of the corresponding concentration-response curves (table 4).

IC50 (rabbit aorta) [nM] | Structure (SMILES) | change in vivo at 20 mg/kg [1] [%] | Selectivity index (Atrium/Aorta) [2] | vasoconstrictory properties (in words) (rabbit aorta strips) | EC50 (rabbit aorta strips; Oryctolagus cuniculus, rabbit aorta strips predepolarized with 10 mM K+) [nM]
0.25 | CC1=C(C(=O)OCCN2C(=O)c3ccccc3S2(=O)=O)C(c2cccc(Cl)c2Cl)C(C(=O)OC(C)C)=C(C)N1 (centres unmarked) [Example 16, 4-(2,3-Dichlorophenyl)-2,6-dimethyl-5-isopropoxycarbonyl-1,4-dihydropyridine-3-carboxyic acid-2-[N-(1,2-benzisothiazolyl-3(2H)one-1,1-dioxide)]-ethylester] | 7.45 | 2744 |  | 
1.3 | CC1=C(C(=O)OCCCN2C(=O)c3ccccc3S2(=O)=O)C(c2ccccc2Cl)C(C(=O)OC(C)C)=C(C)N1 (centres unmarked) [Example 52, 4-(2-Chlorophenyl)-2,6-dimethyl-5-isopropoxycarbonyl-1,4-dihydropyridine-3-carboxylic acid-3-[N-(1,2-benzisothiazolyl-3(2H)one-1,1-dioxide)]-propylester] | 19.4 | 37 |  | 
0.49 | CCOC(=O)C1=C(C)NC(C)=C(C(=O)OCCN2C(=O)c3ccccc3S2(=O)=O)C1c1ccccc1C(F)(F)F (centres unmarked) [Example 17, 2,6-Dimethyl-5-ethoxycarbonyl-4-(2-trifluoromethylphenyl)-1,4-dihydropyridine-3-carboxylic acid-2-[N-(1,2-benzisothiazolyl-3(2H)one-1,1-dioxide)]-ethylester] | 27.3 | 152 |  | 
 | CC1=C(C(=O)OCN2C(=O)c3ccccc3S2(=O)=O)C(c2cccc([N+](=O)[O-])c2)C(C(=O)OC(C)(C)C)=C(C)N1 (centres unmarked) [Example 53, 5-Tert.-butoxycarbonyl-2,6-dimethyl-4-(3-nitrophenyl)-1,4-dihydropyridine-3-carboxylic acid-N-(1,2-benzisothiazolyl-3(2H)one-1,1-dioxide)-methylester] |  |  | has vasoconstrictory properties | 9.3
0.27 | CC1=C(C(=O)OCCN2C(=O)c3ccccc3S2(=O)=O)C(c2cccc([N+](=O)[O-])c2)C(C(=O)OC(C)C)=C(C)N1 (centres unmarked) [Example 3, 2,6-Dimethyl-5-isopropoxycarbonyl-4-(3-nitrophenyl)-1,4-dihydropyridine-3-carboxylic acid-2-[N-(1,2-benzisothiazolyl-3(2H)one-1,1-dioxide)]-ethylester] | 19.7 | 137 |  | 
1.38 | COCCOC(=O)C1=C(C)NC(C)=C(C(=O)OCCCN2C(=O)c3ccccc3S2(=O)=O)C1c1ccccc1C(F)(F)F (centres unmarked) [Example 45, 2,6-Dimethyl-5-(2-methoxyethoxycarbonyl)-4-(2-trifluoromethylphenyl)-1,4-dihydropyridine-3-carboxylic acid-3-[N-(1,2-benzisothiazolyl-3(2H)one-1,1-dioxide)]-propylester] | 11 | 16 |  | 
2.08 | CC1=C(C(=O)OCCCN2C(=O)c3ccccc3S2(=O)=O)C(c2cccc(Cl)c2Cl)C(C(=O)OC(C)C)=C(C)N1 (centres unmarked) [Example 42, 4-(2,3-Dichlorophenyl)-2,6-dimethyl-5-isopropoxycarbonyl-1,4-dihydropyridine-3-carboxylic acid-3-[N-(1,2-benzisothiazolyl-3(2H)one-1,1-dioxide)]-propylester] | 10.5 | 75 |  | 
0.98 | CC1=C(C(=O)OCCN2C(=O)c3ccccc3S2(=O)=O)C(c2ccccc2C(F)(F)F)C(C(=O)OC(C)C)=C(C)N1 (centres unmarked) [Example 18, 2,6-Dimethyl-5-isopropoxycarbonyl-4-(2-trifluoromethylphenyl)-1,4-dihydropyridine-3-carboxylic acid-2-[N-(1,2-benzisothiazolyl-3(2H)one-1,1-dioxide)]-ethylester] | 37.1 | 103 |  | 
0.76 | CCOC(=O)C1=C(C)NC(C)=C(C(=O)OCCCN2C(=O)c3ccccc3S2(=O)=O)C1c1ccccc1C(F)(F)F (centres unmarked) [Example 43, 2,6-Dimethyl-5-ethoxycarbonyl-4-(2-trifluoromethylphenyl)-1,4-dihydropyridine-3-carboxylic acid-3-[N-(1,2-benzisothiazolyl-3(2H)one-1,1-dioxide)]-propylester] | 18.6 | 163 |  | 
1.77 | CCOC(=O)C1=C(C)NC(C)=C(C(=O)OCCCN2C(=O)c3ccccc3S2(=O)=O)C1c1cccc(Cl)c1Cl (centres unmarked) [Example 40, 4-(2,3-Dichlorophenyl)-2,6-dimethyl-5-ethoxycarbonyl-1,4-dihydropyridine-3-carboxylic acid-3-[N-(1,2-benzisothiazolyl-3(2H)one-1,1-dioxide)]-propylester] | 35.5 | 200 |  | 
1.02 | CC1=C(C(=O)OCCCN2C(=O)c3ccccc3S2(=O)=O)C(c2cccc([N+](=O)[O-])c2)C(C(=O)OC(C)C)=C(C)N1 (centres unmarked) [Example 25, 2,6-Dimethyl-5-isopropoxycarbonyl-4-(3-nitrophenyl)-1,4-dihydropyridine-3-carboxylic acid-3-[N-(1,2-benzisothiazolyl-3(2H)one-1,1-dioxide)]-propylester] | -1.01 | 205 |  | 
0.76 | COC(=O)C1=C(C)NC(C)=C(C(=O)OCCCN2C(=O)c3ccccc3S2(=O)=O)C1c1cccc(Cl)c1Cl (centres unmarked) [Example 29, 4-(2,3-Dichlorophenyl)-2,6-dimethyl-5-methoxycarbonyl-1,4-dihydropyridine-3-carboxylic acid-3-[N-(1,2-benzisothiazolyl-3(2H)one-1,1-dioxide)]-propylester] | 35 | 686 |  | 
1.22 | CC1=C(C(=O)OCCCN2C(=O)c3ccccc3S2(=O)=O)C(c2ccccc2[N+](=O)[O-])C(C(=O)OC(C)C)=C(C)N1 (centres unmarked) [Example 39, 2,6-Dimethyl-5-isopropoxycarbonyl-4-(2-nitrophenyl)-1,4-dihydropyridine-3-carboxylic acid-3-[N-(1,2-benzisothiazolyl-3(2H)one-1,1-dioxide)]-propylester] | 3.61 | 15 |  | 
1.5 | COC(=O)C1=C(C)NC(C)=C(C(=O)OCCCN2C(=O)c3ccccc3S2(=O)=O)C1c1ccccc1[N+](=O)[O-] (centres unmarked) [Example 37, 2,6-Dimethyl-5-methoxycarbonyl-4-(2-nitrophenyl)-1,4-dihydropyridine-3-carboxylic acid-3-[N-(1,2-benzisothiazolyl-3(2H)one-1,1-dioxide)]-propylester] | 6.83 | 80 |  | 
1.82 | COC(=O)C1=C(C)NC(C)=C(C(=O)OCCCN2C(=O)c3ccccc3S2(=O)=O)C1c1ccccc1Cl (centres unmarked) [Example 34, 4-(2-Chlorophenyl)-2,6-dimethyl-5-methoxycarbonyl-1,4-dihydropyridine-3-carboxylic acid-3-[N-(1,2-benzisothiazolyl-3(2H)one-1,1-dioxide)]-propylester] | 11.1 | 77 |  | 
1.6 | CC1=C(C(=O)OCCN2C(=O)c3ccccc3S2(=O)=O)C(c2cccc([N+](=O)[O-])c2)C(C(=O)OC(C)(C)C)=C(C)N1 (centres unmarked) [Example 51] | 24.6 | 72 |  | 

Structure (SMILES) | IC50 (rabbit aorta) [nM] | change in vivo at 20 mg/kg [1] [%] | Selectivity index (Atrium/Aorta) [2] | vasoconstrictory properties (in words) (rabbit aorta strips) | EC50 (rabbit aorta strips; Oryctolagus cuniculus, rabbit aorta strips predepolarized with 10 mM K+) [nM]
COC(=O)C1=C(C)NC(C)=C(C(=O)OC)C1c1ccccc1[N+](=O)[O-] [nifedipine, 2,6-dimethyl-4-(2-nitrophenyl)-1,4-dihydropyridine-3,5-dicarboxylic acid 3,5-dimethylester, reference compound] | 2.9 | 35.4 | 39 |  | 
CC1=C(C(=O)OCCN2C(=O)c3ccccc3S2(=O)=O)C(c2ccccc2[N+](=O)[O-])C(C(=O)OC(C)(C)C)=C(C)N1 (centres unmarked) [Example 54, 5-Tert.-butoxycarbonyl-2,6-dimethyl-4-(2-nitrophenyl)-1,4-dihydropyridine-3-carboxylic acid-2-[N-(1,2-benzisothiazolyl-3(2H)one-1,1-dioxide)]-ethylester] | 0.7 | 23.4 | 41 |  | 
CC1=C(C(=O)OCCN2C(=O)c3ccccc3S2(=O)=O)C(c2cccc(Cl)c2Cl)C(C(=O)OC(C)(C)C)=C(C)N1 (centres unmarked) [Example 55, 5-Tert.-butoxycarbonyl-4-(2,3-dichlorophenyl)-2,6-dimethyl-1,4-dihydropyridine-3-carboxylic acid-2-[N-(1,2-benzisothiazolyl-3(2H)one-1,1-dioxide)]-ethylester] | 2.3 | 35.8 | 122 |  | 
